We go through six compounds from patent EP0510151B1, “IMPROVED ANTI-PLAQUE COMPOSITIONS COMPRISING A COMBINATION OF MORPHOLINOAMINO ALCOHOL AND ANTI-MICROBIAL AGENT” (Pharmacia AB, priority 1990, dated 1992).

The structures appear in SMILES notation.

Test [1] deals with Bacteroides melaninogenicus. Put plainly: Minimal inhibitory concentration (MIC) by broth dilution and checkerboard titration of combinations. It is filed as cell-based. The method, then:
(§1) The minimal inhibitory concentration (MIC) of the test compound is the minimum concentration of compound required to inhibit growth of the test microorganism. The MIC is determined by serially diluting the test solution through tubes of sterile broth. The tubes are inoculated and incubated at 37°C for 48 hours. At the end of the incubation time, growth is checked macroscopically. The lowest concentration of test compound to inhibit growth is the MIC. This technique is used to assess antimicrobial activity of combinations. The checkerboard is the pattern found by multiple combinations of two agents in concentrations equal to, above and below their minimal inhibitory concentration for the microorganism tested against. The checkerboard consists of columns which contain the same amount of one agent which is diluted along the x-axis and rows which each contain the same amount of the second agent diluted along the y-axis. Thus each tube is a unique combination of the two agents. […] A method for illustrating the effect of the combination of the two agents is obtained by plotting the MIC's of each agent alone and the MIC's for these agents in combination. Antimicrobial synergy is indicated if the MIC's for the agents in combination are lower than the MIC's for the agents alone.
Background: Dilution methods test growth across graded concentrations, often in twofold steps.

For the next test, the system named is Streptococcus mutans. The description is as above. In kind it is cell-based. The method, then:
as §1

Setting [2] is: B. melaninogenicus, agent alone (other agent 0), Table VII.
[3] abbreviates: S. mutans, agent alone (other agent 0), Table VII.
[4] abbreviates: B. melaninogenicus, agent alone (other agent 0), second table of Example XI, comparative.
Setting [5] is: S. mutans, agent alone (other agent 0), second table of Example XI, comparative.
Where [6] appears, read: B. melaninogenicus, agent alone (other agent 0), Table IX.
The mark [7] stands for this setting: B. melaninogenicus, agent alone (other agent 0), Table X.
Setting [8] is: B. melaninogenicus, agent alone (other agent 0), Table XI, comparative.
[9] abbreviates: S. mutans, agent alone (other agent 0), Table IX.
Where [10] appears, read: S. mutans, agent alone (other agent 0), Table X.
Where [11] appears, read: S. mutans, agent alone (other agent 0), Table XI, comparative.

Consider `CCCCCCCCCCCCOCC(O)CO` (racemic) [1-0-dodecyl-rac-glycerol, reference compound], for which the “Minimum Inhibitory Concentration” value is 10 miligrams/liter in test [1] (setting [2]); 6 miligrams/liter in test [1] (B. melaninogenicus, in combination with 4 miligrams/liter morpholinoamino alcohol HCl); 2 miligrams/liter in test [1] (B. melaninogenicus, in combination with 20 miligrams/liter morpholinoamino alcohol HCl); 10 miligrams/liter with Streptococcus mutans (setting [3]); 6 miligrams/liter with Streptococcus mutans (S. mutans, in combination with 4 miligrams/liter morpholinoamino alcohol HCl); 2 miligrams/liter with Streptococcus mutans (S. mutans, in combination with 100 miligrams/liter morpholinoamino alcohol HCl).

For the compound `OCc1ccc(Cl)cc1Cl` [2,4-dichloro-alcohol, 2,4-dichlorobenzyl alcohol, reference compound], the “Minimum Inhibitory Concentration” value in test [1] (setting [4]) amounted to 100 milligrams/liter; in test [1] (B. melaninogenicus, in combination with 50 milligrams/liter morpholinoamino alcohol HCl, the 12th table), 100 milligrams/liter; in test [1] (B. melaninogenicus, in combination with 100 milligrams/liter morpholinoamino alcohol HCl, the 12th table) it was 100 milligrams/liter; in the test with Streptococcus mutans (setting [5]), 50 milligrams/liter; in the test on Streptococcus mutans (S. mutans, in combination with 50 milligrams/liter morpholinoamino alcohol HCl, the 12th table), 50 milligrams/liter; in the test with Streptococcus mutans (S. mutans, in combination with 100 milligrams/liter morpholinoamino alcohol HCl, the 12th table), 50 milligrams/liter.

In the case of `CCCC(CCC)CCCC1COCCN1CCO.Cl` (stereo not drawn) [3-(4-propylheptyl)-4-(2-hydroxyethyl) morpholine hydrochloride], the “Minimum Inhibitory Concentration” value in test [1] (B. melaninogenicus (J18M2), agent alone (other agent 0), Table VIII) worked out at 200 milligrams/liter; in test [1] (B. melaninogenicus (J18M2), in combination with 0.003 milligrams/liter cetyl pyridinium chloride) it was 100 milligrams/liter; in test [1] (B. melaninogenicus (J18M2), in combination with 0.006 milligrams/liter cetyl pyridinium chloride) it was 50 milligrams/liter; in test [1] (setting [6]) it was 200 milligrams/liter; in test [1] (setting [2]), 200 miligrams/liter; in test [1] (setting [7]) it was 200 milligrams/liter. For the same compound, the “Minimum Inhibitory Concentration” value was found to be 200 milligrams/liter in test [1] (setting [8]); 200 milligrams/liter in test [1] (setting [4]); 100 milligrams/liter in test [1] (B. melaninogenicus, in combination with 0.125 milligrams/liter hexitidine); 50 milligrams/liter in test [1] (B. melaninogenicus, in combination with 0.25 milligrams/liter hexitidine); 20 miligrams/liter in test [1] (B. melaninogenicus, in combination with 2 miligrams/liter 1-0-dodecyl-rac-glycerol); 100 milligrams/liter in test [1] (B. melaninogenicus, in combination with 2.5 milligrams/liter amyl-m-cresol). Also, the “Minimum Inhibitory Concentration” value in test [1] (B. melaninogenicus, in combination with 6 miligrams/liter 1-0-dodecyl-rac-glycerol) worked out at 4 miligrams/liter; in test [1] (B. melaninogenicus, in combination with 6.25 milligrams/liter domiphen bromide), 100 milligrams/liter; in test [1] (B. melaninogenicus, in combination with 10 milligrams/liter amyl-m-cresol), 50 milligrams/liter; in test [1] (B. melaninogenicus, in combination with 12.5 milligrams/liter domiphen bromide), 50 milligrams/liter; in test [1] (B. melaninogenicus, in combination with 100 milligrams/liter 2, 4-dichloro-alcohol (row with 50 morpholinoamino alcohol HCl)) it was 50 milligrams/liter; in test [1] (B. melaninogenicus, in combination with 100 milligrams/liter 2, 4-dichloro-alcohol (row with 100 morpholinoamino alcohol HCl)), 100 milligrams/liter. In addition, the Minimum Inhibitory Concentration in test [1] (B. melaninogenicus, in the absence of the dodecyl glycerol) worked out at 200 milligrams per liter; with Streptococcus mutans (S. mutans (ATCC 2517S), agent alone (other agent 0), Table VIII) it was 200 milligrams/liter; in the test on Streptococcus mutans (setting [9]), 200 milligrams/liter; in the test on Streptococcus mutans (setting [3]), 200 miligrams/liter; in the test with Streptococcus mutans (setting [10]), 200 milligrams/liter; in the test on Streptococcus mutans (setting [11]), 200 milligrams/liter. Moreover, the “Minimum Inhibitory Concentration” value with Streptococcus mutans (setting [5]) stood at 200 milligrams/liter; in the test on Streptococcus mutans (S. mutans, in combination with 0.25 milligrams/liter hexitidine (row with 50 morpholinoamino alcohol HCl)) it was 50 milligrams/liter; in the test with Streptococcus mutans (S. mutans, in combination with 0.25 milligrams/liter hexitidine (row with 100 morpholinoamino alcohol HCl)) it was 100 milligrams/liter; with Streptococcus mutans (S. mutans, in combination with 0.5 milligrams/liter domiphen bromide), 100 milligrams/liter; in the test with Streptococcus mutans (S. mutans, in combination with 1.0 milligrams/liter domiphen bromide) it was 50 milligrams/liter; with Streptococcus mutans (S. mutans, in combination with 2 miligrams/liter 1-0-dodecyl-rac-glycerol), 100 miligrams/liter. Also, the “Minimum Inhibitory Concentration” value with Streptococcus mutans (S. mutans, in combination with 6 miligrams/liter 1-0-dodecyl-rac-glycerol) turned out to be 4 miligrams/liter; with Streptococcus mutans (S. mutans, in combination with 10 milligrams/liter amyl-m-cresol (row with 50 morpholinoamino alcohol HCl)), 50 milligrams/liter; in the test with Streptococcus mutans (S. mutans, in combination with 10 milligrams/liter amyl-m-cresol (row with 100 morpholinoamino alcohol HCl)) it was 100 milligrams/liter; in the test with Streptococcus mutans (S. mutans, in combination with 50 milligrams/liter 2, 4-dichloro-alcohol (row with 50 morpholinoamino alcohol HCl)) it was 50 milligrams/liter; with Streptococcus mutans (S. mutans, in combination with 50 milligrams/liter 2, 4-dichloro-alcohol (row with 100 morpholinoamino alcohol HCl)), 100 milligrams/liter; in the test on Streptococcus mutans (S. mutans, in the absence of the dodecyl glycerol), 200 milligrams per liter.

For `CCCCCc1ccc(C)cc1O` [amyl-m-cresol, reference compound], the “Minimum Inhibitory Concentration” value in test [1] (setting [8]) is 10 milligrams/liter; in test [1] (B. melaninogenicus, in combination with 50 milligrams/liter morpholinoamino alcohol HCl, Table XI) it was 10 milligrams/liter; in test [1] (B. melaninogenicus, in combination with 100 milligrams/liter morpholinoamino alcohol HCl, Table XI), 2.5 milligrams/liter; in the test with Streptococcus mutans (setting [11]), 10 milligrams/liter; in the test on Streptococcus mutans (S. mutans, in combination with 50 milligrams/liter morpholinoamino alcohol HCl, Table XI), 10 milligrams/liter; in the test on Streptococcus mutans (S. mutans, in combination with 100 milligrams/liter morpholinoamino alcohol HCl, Table XI) it was 10 milligrams/liter.

With `CCCCCCCCCCCC[N+](C)(C)CCOc1ccccc1` [domiphen bromide, reference compound], the “Minimum Inhibitory Concentration” value in test [1] (setting [6]) stood at 50 milligrams/liter; in test [1] (B. melaninogenicus, in combination with 50 milligrams/liter morpholinoamino alcohol HCl, Table IX), 12.5 milligrams/liter; in test [1] (B. melaninogenicus, in combination with 100 milligrams/liter morpholinoamino alcohol HCl, Table IX) it was 6.25 milligrams/liter; in the test on Streptococcus mutans (setting [9]), 1.0 milligrams/liter; in the test with Streptococcus mutans (S. mutans, in combination with 50 milligrams/liter morpholinoamino alcohol HCl, Table IX) it was 1.0 milligrams/liter; in the test with Streptococcus mutans (S. mutans, in combination with 100 milligrams/liter morpholinoamino alcohol HCl, Table IX), 0.5 milligrams/liter.

Take `CCCCC(CC)CN1CN(CC(CC)CCCC)CC(C)(N)C1` (stereo not drawn) [hexitidine, hexetidine, reference compound]: the “Minimum Inhibitory Concentration” value in test [1] (setting [7]) amounted to 1.0 milligrams/liter; in test [1] (B. melaninogenicus, in combination with 50 milligrams/liter morpholinoamino alcohol HCl, Table X), 0.25 milligrams/liter; in test [1] (B. melaninogenicus, in combination with 100 milligrams/liter morpholinoamino alcohol HCl, Table X), 0.125 milligrams/liter; in the test with Streptococcus mutans (setting [10]), 1.0 milligrams/liter; in the test with Streptococcus mutans (S. mutans, in combination with 50 milligrams/liter morpholinoamino alcohol HCl, Table X), 0.25 milligrams/liter; with Streptococcus mutans (S. mutans, in combination with 100 milligrams/liter morpholinoamino alcohol HCl, Table X), 0.25 milligrams/liter.
